Source: US20100298141A1, “SUBSTITUTED PYRIDINE N-OXIDE HERBICIDES” (E. I. DU PONT DE NEMOURS AND COMPANY, priority 2007, published 2010)

Legend:
soybean = test: Test C pre-/postemergence test; type: in vivo, Glycine max
Method in brief: (§1)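 Seeds were planted and treated preemergence with test chemical in a non-phytotoxic solvent mixture containing surfactant. Postemergence applications of the same formulation went onto plants 2 to 18 cm tall (1- to 4-leaf stage). A dash marks no test result.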

umbrella sedge = test: Test C flooded paddy test; type: in vivo, Cyperus difformis; conditions: Flood
Method in brief: (§2)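 In-water treatment: compound dosed into 3 cm flood over soil, water level unchanged throughout. Controls run alongside; visual assessment at day 13–15.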

[1] = tested on: common (oilseed) sunflower; test: Test C pre-/postemergence test; type: in vivo, Helianthus annuus
Method in brief: as §1

morningglory = test: Test A pre-/postemergence greenhouse test; type: in vivo, Ipomoea spp.; conditions: for Morningglory plant response rating: 0 to 100 scale; for Plant response rating, Morningglory: 0 to 100 scale where 0 is no effect and 100 is complete control
Method in brief: (§3)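 Test compounds in non-phytotoxic solvent with surfactant were applied as a preemergence soil spray to seeded loam/sand pots and, concurrently, postemergence to plants at 2–10 cm, one- to two-leaf stage. About ten days in greenhouse, then injury visually rated against untreated controls.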

cocklebur = test: Test C pre-/postemergence test; type: in vivo, Xanthium strumarium; conditions: for Plant response rating (0 to 100), Cocklebur: 250 g ai/ha
Method in brief: as §1

kochia = test: Test C pre-/postemergence test; type: in vivo, Kochia scoparia
Method in brief: as §1

Goosegrass = test: Test C pre-/postemergence test; type: in vivo, Eleusin indica; conditions: for Plant response rating (0 to 100), Goosegrass: 250 g ai/ha
Method in brief: as §1

lambsquarters = test: Test C pre-/postemergence test; type: in vivo, Chenopodium album
Method in brief: as §1

Surinam grass = test: Test C pre-/postemergence test; type: in vivo, Brachiaria decumbens
Method in brief: as §1

bermudagrass = test: Test C pre-/postemergence test; type: in vivo, Cynodon dactylon; conditions: for Plant response rating (0 to 100), Bermudagrass: 250 g ai/ha
Method in brief: as §1

barnyardgrass [2] = test: Test A pre-/postemergence greenhouse test; type: in vivo, Echinochloa crus-galli; conditions: for Barnyardgrass plant response rating: 0 to 100 scale; for Plant response rating, Barnyardgrass: 0 to 100 scale where 0 is no effect and 100 is complete control
Method in brief: as §3

pigweed = test: Test C pre-/postemergence test; type: in vivo, Amaranthus retroflexus
Method in brief: as §1

crabgrass [3] = test: Test C pre-/postemergence test; type: in vivo, Digitaria sanguinalis; conditions: for Plant response rating (0 to 100), Crabgrass, Large: 250 g ai/ha
Method in brief: as §1

crabgrass [4] = test: Test A pre-/postemergence greenhouse test; type: in vivo, Digitaria sanguinalis; conditions: for Crabgrass, Large plant response rating: 0 to 100 scale; for Plant response rating, Crabgrass, Large: 0 to 100 scale where 0 is no effect and 100 is complete control
Method in brief: as §3

barnyardgrass [5] = test: Test C flooded paddy test; type: in vivo, Echinochloa crus-galli; conditions: Flood
Method in brief: as §2

giant foxtail = test: Test A pre-/postemergence greenhouse test; type: in vivo, Setaria faberi; conditions: for Foxtail, Giant plant response rating: 0 to 100 scale; for Plant response rating, Foxtail, Giant: 0 to 100 scale where 0 is no effect and 100 is complete control
Method in brief: as §3

Italian ryegrass = test: Test C pre-/postemergence test; type: in vivo, Lolium multiflorum
Method in brief: as §1

[6] = 62 g ai/ha, Preemergence, scale 0 to 100
[7] = Preemergence, 31 g ai/ha, scale 0 to 100 (0 no effect, 100 complete control)
[8] = 31 g ai/ha, scale 0 to 100 (0 no effect, 100 complete control)
[9] = 62 g ai/ha, scale 0 to 100, 0 no effect, 100 complete control, 13 to 15 days
[10] = 125 g ai/ha, scale 0 to 100, 0 no effect, 100 complete control, 13 to 15 days
[11] = Postemergence, 125 g ai/ha, 0 is no effect, 100 is complete control
[12] = Postemergence, 500 g ai/ha, 0 is no effect, 100 is complete control
[13] = Preemergence, 125 g ai/ha, 0 no effect, 100 complete control
[14] = preemergence, 125 g ai/ha, scale 0 (no effect) to 100 (complete control)
[15] = 250 g ai/ha, scale 0 to 100 (0 no effect, 100 complete control)
[16] = 31 g ai/ha, Preemergence, scale 0 to 100
[17] = 62 g ai/ha, preemergence, scale 0 (no effect) to 100 (complete control)

CC(c1c(C(F)(F)F)nn(C)c1OC(F)F)S(=O)(=O)c1cc(C(C)(C)C)cc[n+]1[O-] (racemic) [Compound 26]
95: Plant response rating, Sedge, Umbrella (umbrella sedge; [10]) | Plant response rating, Sedge, Umbrella (umbrella sedge; 250 g ai/ha, scale 0 to 100, 0 no effect, 100 complete control, 13 to 15 days)
10: Plant response rating, Surinam Grass (Surinam grass; [7])
80: Plant response rating, Sedge, Umbrella (umbrella sedge; [9]) | Plant response rating, Bermudagrass (bermudagrass; [7]) | Plant response rating, Barnyardgrass (barnyardgrass [5]; [15])
90: Plant response rating, Goosegrass (Goosegrass; [7]) | Plant response rating, Barnyardgrass (barnyardgrass [2]; Preemergence, 500 g ai/ha) | Crabgrass, Large plant response rating (crabgrass [4]; [13]) | Foxtail, Giant plant response rating (giant foxtail; [13])
30: Morningglory plant response rating (morningglory; [12]) | Morningglory plant response rating (morningglory; [13]) | Foxtail, Giant plant response rating (giant foxtail; [12])
70: Plant response rating, Sedge, Umbrella (umbrella sedge; [8])
40: Lambsquarters plant response rating (lambsquarters; [6]) | Surinam Grass plant response rating (Surinam grass; [6]) | Crabgrass, Large plant response rating (crabgrass [4]; [12])
85: Plant response rating, Pigweed (pigweed; [7])
50: Plant response rating (0 to 100), Cocklebur (cocklebur; Preemergence)
20: Morningglory plant response rating (morningglory; [11]) | Crabgrass, Large plant response rating (crabgrass [4]; [11]) | Plant response rating, Barnyardgrass (barnyardgrass [5]; [10])
65: Ryegrass, Italian plant response rating (Italian ryegrass; [6])
60: Barnyardgrass plant response rating (barnyardgrass [2]; [13])
0: Soybean plant response rating (soybean; [6]) | Plant response rating, Soybean (soybean; [7]) | Sunflower plant response rating [1, 6] | Plant response rating, Sunflower [1, 7] | Cocklebur plant response rating (cocklebur; [6]) | Plant response rating, Cocklebur (cocklebur; [7]) | Cocklebur plant response rating (cocklebur; [14]) | Kochia plant response rating (kochia; [6]) | Plant response rating, Lambsquarters (lambsquarters; [7]) | Barnyardgrass plant response rating (barnyardgrass [2]; [11]) | Barnyardgrass plant response rating (barnyardgrass [2]; [12]) | Plant response rating, Barnyardgrass (barnyardgrass [5]; [8]) | Plant response rating, Barnyardgrass (barnyardgrass [5]; [9]) | Foxtail, Giant plant response rating (giant foxtail; [11]) | Plant response rating, Ryegrass, Italian (Italian ryegrass; [7])
98: Goosegrass plant response rating (Goosegrass; [6])
100: Plant response rating, Morningglory (morningglory; Preemergence, 500 g ai/ha) | Plant response rating (0 to 100), Goosegrass (Goosegrass; Preemergence) | Bermudagrass plant response rating (bermudagrass; 62 g ai/ha, Preemergence, scale 0 to 100 (0 no effect, 100 complete control)) | Plant response rating (0 to 100), Bermudagrass (bermudagrass; Preemergence) | Bermudagrass plant response rating (bermudagrass; [14]) | Pigweed plant response rating (pigweed; [6]) | Crabgrass, Large plant response rating (crabgrass [3]; [6]) | Plant response rating, Crabgrass, Large (crabgrass [3]; [7]) | Plant response rating (0 to 100), Crabgrass, Large (crabgrass [3]; Preemergence) | Plant response rating, Crabgrass, Large (crabgrass [4]; Preemergence, 500 g ai/ha) | Plant response rating, Foxtail, Giant (giant foxtail; Preemergence, 500 g ai/ha)

Cn1nc(C(F)(F)F)c(C(Cl)S(=O)(=O)c2cccc[n+]2[O-])c1Cl (centres unmarked) [Compound 12]
70: Crabgrass, Large plant response rating (crabgrass [4]; [12]) | Crabgrass, Large plant response rating (crabgrass [4]; [13]) | Foxtail, Giant plant response rating (giant foxtail; [12]) | Ryegrass, Italian plant response rating (Italian ryegrass; [17]) | Ryegrass, Italian plant response rating (Italian ryegrass; [14])
85: Plant response rating, Barnyardgrass (barnyardgrass [5]; [15]) | Plant response rating (0 to 100), Ryegrass, Italian (Italian ryegrass; Preemergence, 250 g ai/ha)
50: Barnyardgrass plant response rating (barnyardgrass [2]; [11]) | Plant response rating, Barnyardgrass (barnyardgrass [5]; [9]) | Foxtail, Giant plant response rating (giant foxtail; [11])
90: Plant response rating, Sedge, Umbrella (umbrella sedge; [8]) | Barnyardgrass plant response rating (barnyardgrass [2]; [13]) | Plant response rating, Barnyardgrass (barnyardgrass [2]; Preemergence, 500 g ai/ha)
20: Plant response rating (0 to 100), Sunflower ([1]; Preemergence, 250 g ai/ha) | Morningglory plant response rating (morningglory; [11])
40: Plant response rating (0 to 100), Surinam Grass (Surinam grass; Preemergence, 250 g ai/ha)
0: Soybean plant response rating (soybean; [16]) | Soybean plant response rating (soybean; [17]) | Soybean plant response rating (soybean; [14]) | Sunflower plant response rating [1, 17] | Sunflower plant response rating [1, 14] | Morningglory plant response rating (morningglory; [13]) | Cocklebur plant response rating (cocklebur; [16]) | Cocklebur plant response rating (cocklebur; [17]) | Plant response rating (0 to 100), Cocklebur (cocklebur; Preemergence) | Cocklebur plant response rating (cocklebur; [14]) | Kochia plant response rating (kochia; [16]) | Kochia plant response rating (kochia; [17]) | Lambsquarters plant response rating (lambsquarters; [16]) | Surinam Grass plant response rating (Surinam grass; [17]) | Plant response rating, Barnyardgrass (barnyardgrass [5]; [8]) | Ryegrass, Italian plant response rating (Italian ryegrass; [16])
100: Plant response rating, Sedge, Umbrella (umbrella sedge; [10]) | Plant response rating, Sedge, Umbrella (umbrella sedge; [15]) | Goosegrass plant response rating (Goosegrass; [16]) | Goosegrass plant response rating (Goosegrass; [17]) | Plant response rating (0 to 100), Goosegrass (Goosegrass; Preemergence) | Goosegrass plant response rating (Goosegrass; [14]) | Lambsquarters plant response rating (lambsquarters; [17]) | Plant response rating (0 to 100), Lambsquarters (lambsquarters; Preemergence, 250 g ai/ha) | Lambsquarters plant response rating (lambsquarters; [14]) | Bermudagrass plant response rating (bermudagrass; [16]) | Bermudagrass plant response rating (bermudagrass; [17]) | Plant response rating (0 to 100), Bermudagrass (bermudagrass; Preemergence) | Bermudagrass plant response rating (bermudagrass; [14]) | Pigweed plant response rating (pigweed; [16]) | Pigweed plant response rating (pigweed; [17]) | Plant response rating (0 to 100), Pigweed (pigweed; Preemergence, 250 g ai/ha) | Pigweed plant response rating (pigweed; [14]) | Crabgrass, Large plant response rating (crabgrass [3]; [16]) | Crabgrass, Large plant response rating (crabgrass [3]; [17]) | Plant response rating (0 to 100), Crabgrass, Large (crabgrass [3]; Preemergence) | Crabgrass, Large plant response rating (crabgrass [3]; [14]) | Plant response rating, Crabgrass, Large (crabgrass [4]; Preemergence, 500 g ai/ha) | Plant response rating, Foxtail, Giant (giant foxtail; Preemergence, 500 g ai/ha)
95: Plant response rating, Sedge, Umbrella (umbrella sedge; [9])
60: Plant response rating, Morningglory (morningglory; Preemergence, 500 g ai/ha) | Barnyardgrass plant response rating (barnyardgrass [2]; [12]) | Crabgrass, Large plant response rating (crabgrass [4]; [11])
30: Morningglory plant response rating (morningglory; [12]) | Surinam Grass plant response rating (Surinam grass; [14])
80: Plant response rating (0 to 100), Kochia (kochia; Preemergence, 250 g ai/ha) | Plant response rating, Barnyardgrass (barnyardgrass [5]; [10]) | Foxtail, Giant plant response rating (giant foxtail; [13])
10: Plant response rating (0 to 100), Soybean (soybean; Preemergence, 250 g ai/ha)
